The record followed here is patent publication US20200054646A1, “USE OF PHENOTHIAZINE DERIVATIVE IN THE TREATMENT OF INFECTIOUS PURPURA OR PURPURA FULMINANS” (priority 2016, published 2020).

In experiment [1] the test system is type IV pili of N. meningitidis 2C4.3 and isogenic PilT mutant. Kind of experiment: Aggregation and type IV pili of wild type and PilT mutant (phase-contrast and transmission electron microscopy). The class given is cell-based, Neisseria meningitidis. On the procedure:
(§1) N. meningitidis 2C4.3 wild type strain and the isogenic derivative mutant PilT ([…]PilT) were grown in liquid culture at 10^7 CFU/ml for 2 h to form bacterial aggregates and then treated with 50 μM Trifluoperazine. Time lapse phase-contrast video microscopy was performed to visualize the effect on bacterial aggregates over time. Images were taken at the indicated time points of the video.
N. meningitidis 2C4.3 wild type strain and the isogenic derivative mutant PilT ([…]PilT) were grown in liquid culture at 10^7 CFU/ml for 2 h to form bacterial aggregates and then treated with 50 μM Trifluoperazine for 15 minutes before analysis by transmission electron microscopy. Arrows point at bundles of type IV pili expressed at the bacterial surface.
N. meninigitidis 2C4.3 strain and the isogenic derivative mutant PilT, where the pilT gene was interrupted by an erythromycin-resistance cassette (Pujol et al., 1999), were grown in suspension in DMEM medium supplemented with 10% heat-inactivated fetal calf serum. PilT belongs to a highly conserved protein family homologous to AAA-type motor proteins and is proposed to cause the retraction of type IV pili by disassembling the pilin subunits at the base of the fiber (Morand et al., 2004). After 2 h of growth, Trifluoperazine (or control vehicle) was added at 50 μM for 20 min. The effect on bacterial aggregates were visualized over time using a phase-contrast microscope or the bacterial suspensions were fixed in 4% Paraformaldehyde for 10 min, centrifuged at 1000 rpm for 5 minutes and the bacterial pellets washed in PBS. After negative staining with 1% phosphotungstic acid, bacteria were analysed by transmission electron microscopy, using a JEOL 1011 microscope.

Experiment [2] has as its system HBMECs infected with meningococci. Briefly: PECAM-1 recruitment at bacterial adhesion sites in infected HBMEC. As to conditions: 5 μM, 2 h infection. The class given is cell-based, human. On the procedure: (A) Monolayers of HBMECs were non-infected or infected for 2 h with meningococci and the effect on the localisation of the endothelial cell junction proteins PECAM-1 and […]-catenin was analysed by immunofluorescence analysis. Arrows point at PECAM-1 molecules recruited at bacterial adhesion sites (B) HBMECs were infected for 2 h with meningococci in the presence or in the absence of 5 μM Trifluoperazine and the effect on junctional PECAM-1 and on the endothelial cell cytoskeleton remodelling (Ezrin, Actin) was analysed by immunofluorescence analysis. (C) Quantification of Actin and PECAM-1 recruitment at sites of bacterial adhesion was performed using Image J software.
HDMECs were grown in their specific culture medium (Promocell #C-12210) and confluent monolayers were infected with 2C4.3. Briefly, bacteria were precultured in prewarmed cell culture medium for 1 h 30 min at 37° C. 5% CO2. The OD600 was adjusted to 0.1 and HDMECs were then overlaid with bacteria for 30 min (MOI of 100). Unbound bacteria were removed by three washes in cell culture media and infection was allowed to proceed for 1 h at 37° C. 5% CO2. Gentamicin was added at 150 μg/ml for 1 h, then after three washes in cell culture media, Trifluoperazine was applied where mentioned at 50 μM for 20 min. […] Quantifications were done using ImageJ software (NIH).

Experiment [3] has as its system meningococcal colonization of human brain vessels. The arrangement: species or system Neisseria meningitidis. Conditions: 40 μM for 30 min.
Text: Fresh human brain sections were obtained from frontal lobe specimens of macroscopically and histologically normal brain (confirmed by a neuropathologist) of individuals referred to the Department of Forensic Medicine for unexplained out-of-hospital sudden death (consent forms ML1094, PFS 10-008, ClinicalTrials.gov NCT00320099 from The Institutional Review Boards of the Poincare Hospital, Versailles-Saint Quentin University and the French “Agence de la Biomédecine”). After freezing of the brain tissue with isopentane cooled in liquid nitrogen, the sections, 7 μm thick, containing leptomeninges, cortical ribbon and the underlying white matter were immobilised on Superfrost™ plus microscope slides and stored at −80° C. […] Adherent meningococci were detected by immunofluorescence analysis: brain sections were incubated with the following primary antibodies for 2 h in PBS/BSA 0.1%: monoclonal anti-human CD31/PECAM-1 mouse monoclonal antibody (clone HEC7, ABCAM, ab119339) and a rabbit polyclonal serum anti-Nm 2C4.3 strain (1:3000). […] Entire samples were scanned using a Lamina (Perkin Helmer) and were further analysed using confocal microscopy (spinning disk Leica, 63×). Quantification analysis of the images (n=50 per section) was performed using ImageJ software (NIH). […]
The test system of experiment [4] is meningococcal colonization of the human dermal vasculature. Kind of experiment: In vivo infection of mice engrafted with human skin.
The subject of experiment [5] is N. meningitidis 2C4.3 bacterial aggregates. Briefly: microbe, parasite or virus in culture. The class given is cell-based, Neisseria meningitidis. The procedure: N. meningitidis 2C4.3 was grown in liquid culture at 10^7 CFU/ml for 2 h to form bacterial aggregates and were treated with increasing concentrations of Trifluoperazine (10 to 40 μM), Gentamicin (150 μg/ml) or cefotaxim (20 μg/ml) for 20 minutes and bacterial aggregates were immediately visualized using a phase-contrast microscope. […] (B) Quantification of the bacterial aggregation was performed using Image J software.
as §1
N. meningitidis 2C4.3 was grown in liquid culture at 10^7 CFU/ml for 2 h to form bacterial aggregates and were treated with 30 μM Trifluoperazine for 30 minutes to induce bacterial dispersion or PBS as a control. The medium was replaced to remove the Trifluoperazine and the reformation of bacterial aggregates were visualized overtime using a phase-contrast microscope.
FIG. 7. […] Bacteria were grown in suspension for 2 h then Phenothiazine derivatives were added at the indicated concentrations.
N. meninigitidis 2C4.3 strain was grown in suspension in wells of a 24 well plate, containing 1 ml of DMEM medium supplemented with 10% heat-inactivated fetal calf serum. After 2 h of growth, Trifluoperazine (or control vehicle) was added at various concentrations ranging from 10 to 40 μM for 20 min and the bacterial aggregates were visualized over time using a phase-contrast microscope.
N. meninigitidis 2C4.3 strain was grown in suspension in wells of a 24 well plate, containing 1 ml of DMEM medium supplemented with 10% heat-inactivated fetal calf serum. After 2 h of growth, various concentrations (0.5 to 80 μM) of phenothiazine-derivative compounds or control vehicle (PBS or DMSO) were added to the wells for 30 min and the bacterial aggregates were visualized using a phase-contrast microscope.
Were tested phenothiazine-derivative compounds of: • the Piperazine group: Trifluoperazine (Sigma #T8516), Fluphenazine (Sigma #F4765), Prochlorperazine (Sigma #P9178) Perphenazine (Sigma #P6402); • the Piperidine group: Thioridazine (Sigma #T9025) and Mesoridazin (Sigma #M4068); • the Aliphatic group: Chlorpromazine (Sigma #C8138), Promazine (Sigma #P6656), Triflupromazine (Sigma #1686003) and levomepromazine (Sigma #L0500000).

For `CN1CCN(CCCN2c3ccccc3Sc3ccc(C(F)(F)F)cc32)CC1` [Trifluoperazine], the “surface expression of type IV pili, PilT mutant (TEM)” value in experiment [1] (50 μM) is on record as “did not affect”. For the same compound, the “type IV pili on bacterial surface, wild type 2C4.3 (TEM)” value in experiment [1] (50 μM for 30 minutes) is listed as “no longer observed”. The “effect on aggregation of PilT mutant strain” value in experiment [1] (50 μM, PilT mutant unable to retract type IV pili) was “no effect”. Further, in experiment [2], the “PECAM-1 recruitment at bacterial adhesion sites” value was “prevented PECAM-1 recruitment” and the bacterial colonization entry is “did not affect”. The “reduction of vascular colonization of the human brain vessels” value in experiment [3] is 80%. In experiment [4] (mice engrafted with human skin), the “colonization of the human dermal vasculature” value is recorded as “prevents the massive colonization”, the “incidence of vascular alteration” value is listed as “reduces incidence of vascular alteration” and the “signs of intravascular coagulation” value is listed as “reduces the signs of intravascular coagulation”. Further, the “hallmark of vascular inflammation” value in experiment [4] (trifluoperazine alone or in combination with cefotaxime) is listed as “drastically reduced”. Moreover, the “reversibility of the effect on aggregation upon removal” value in experiment [5] (30 μM for 30 minutes, then medium replaced) is given as “reversible”. The “dispersion of bacterial aggregates pre-formed for two hours” value in experiment [5] (10 to 40 μM, 20 min) is on record as “induced their dispersion”. Further, the “concentration range of dose-dependent dispersion of aggregates” value in experiment [5] (20 min treatment, suspension) fell in the range of 10 to 40 µM. The EC80 in experiment [5] (Neisseria meningitidis, 0.5 h, read-out: Concentration promoting efficient meningococcal dispersal (~80%)) came out at 30 µM. In experiment [5] (time lapse video microscopy, 50 μM), the “time after addition at which dispersion occurs” value lay in the range of 10 to 15 min.

With `CN[C@@H]1[C@@H](O)C(O[C@@H]2[C@@H](O)[C@H](O[C@H]3O[C@H]([C@@H](C)NC)CC[C@H]3N)[C@@H](N)C[C@H]2N)OC[C@]1(C)O` (stereo partly drawn) [Gentamicin, (3R,4R,5R)-2-{[(1S,2S,3R,4S,6R)-4,6-diamino-3-{[(2R,3R,6S)-3-amino-6-[(1R)-1-(methylamino)ethyl]oxan-2-yl]oxy}-2-hydroxycyclohexyl]oxy}-5-methyl-4-(methylamino)oxane-3,5-diol], the “dispersion of bacterial aggregates formed in suspension” value in experiment [5] (Gentamicin 150 μg/ml, 20 minutes) is recorded as “did not significantly induce the dispersion”.
